From PubChem BioAssay AID192 (DTP/NCI, 2004)
Values joined by “and” are separate entries in the source; they are usually repeats but may differ in a detail not shown here. Identical values can stand only once. Inconclusive results and toxic doses are left out. Rule for the calls: active = survival T/C of 150% or more; inactive = T/C below 125% in these data.

System: BDF1 mice, B16 melanoma ip, median survival T/C
Test: NCI In Vivo Anticancer Drug Screen. Data for tumor model B16 Melanoma (intraperitoneal) in B6D2F1 (BDF1) mice
Settings: endpoint: median survival time, higher = longer survival
Method in brief: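 Transplantable tumor model; survival or tumor size measured; reported as T/C, treated over vehicle control.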

[1] = dose: 12.5 mg/kg/injection, schedule: Q01DX009 (ip), vehicle: Klucel (hydroxypropylcellulose) (HPC)

Measured: T/C

CCCCC[C@H](O)/C=C/[C@@H]1[C@@H](C/C=C\CCCC(=O)O)[C@@H](O)C[C@H]1O
inactive: dose: 0.25 mg/kg/injection, schedule: Q#A X020 (ip), vehicle: saline with Tween-80 109 % of control | dose: 1.0 mg/kg/injection, schedule: Q#A X020 (ip), vehicle: saline with Tween-80 100 % of control | dose: 2.0 mg/kg/injection, schedule: Q#A X020 (ip), vehicle: saline with Tween-80 110 % of control | dose: 10.0 mg/kg/injection, schedule: Q04DX002 (ip), vehicle: saline 113 % of control | dose: 20.0 mg/kg/injection, schedule: Q04DX002 (ip), vehicle: saline 95 % of control | dose: 40.0 mg/kg/injection, schedule: Q04DX002 (ip), vehicle: saline 108 % of control | dose: 80.0 mg/kg/injection, schedule: Q04DX002 (ip), vehicle: saline 108 % of control | dose: 160.0 mg/kg/injection, schedule: Q04DX002 (ip), vehicle: saline 97 % of control | dose: 320.0 mg/kg/injection, schedule: Q04DX002 (ip), vehicle: saline 97 % of control

O=C(CC(O)(C(F)(F)F)C(F)(F)F)CC(O)(C(F)(F)F)C(F)(F)F
inactive: dose: 1.25 mg/kg/injection, schedule: Q04DX003 (ip), vehicle: saline 116 % of control | dose: 2.5 mg/kg/injection, schedule: Q04DX003 (ip), vehicle: saline 122 % of control and 116 % of control

CN(C)S(=O)(=O)c1ccc2c(c1)N(CCCN1CCN(S(C)(=O)=O)CC1)c1ccccc1S2
inactive: dose: 0.78 mg/kg/injection, schedule: Q01DX009 (ip), vehicle: Klucel (hydroxypropylcellulose) (HPC) 87 % of control | dose: 1.56 mg/kg/injection, schedule: Q01DX009 (ip), vehicle: Klucel (hydroxypropylcellulose) (HPC) 90 % of control | dose: 3.12 mg/kg/injection, schedule: Q01DX009 (ip), vehicle: Klucel (hydroxypropylcellulose) (HPC) 90 % of control | [1] 95 % of control

CC1(C)N=C(N)N=C(N)N1c1cc(Cl)c(Cl)cc1Cl
inactive: [1] 94 % of control | dose: 25.0 mg/kg/injection, schedule: Q01DX009 (ip), vehicle: Klucel (hydroxypropylcellulose) (HPC) 99 % of control

C1CC[N-]CC1.C1CC[N-]CC1.CS(C)=O.[Cl][Rh]([Cl])[Cl]
inactive: dose: 5.0 mg/kg/injection, schedule: Q01DX009 (ip), vehicle: saline with Tween-80 99 % of control | dose: 10.0 mg/kg/injection, schedule: Q01DX009 (ip), vehicle: saline with Tween-80 95 % of control

C=C1N(C)c2ccccc2C1(C)C
inactive: dose: 1.0 mg/kg/injection, schedule: Q01DX009 (ip), vehicle: saline with Tween-80 104 % of control | dose: 2.0 mg/kg/injection, schedule: Q01DX009 (ip), vehicle: saline with Tween-80 100 % of control | dose: 4.0 mg/kg/injection, schedule: Q01DX009 (ip), vehicle: saline with Tween-80 98 % of control | dose: 13.0 mg/kg/injection, schedule: Q01DX009 (ip), vehicle: saline with Tween-80 117 % of control | dose: 19.0 mg/kg/injection, schedule: Q01DX009 (ip), vehicle: saline with Tween-80 98 % of control | dose: 29.0 mg/kg/injection, schedule: Q01DX009 (ip), vehicle: saline with Tween-80 104 % of control | dose: 45.0 mg/kg/injection, schedule: Q01DX009 (ip), vehicle: saline with Tween-80 98 % of control

ClCCOCOCCCl
inactive: dose: 20.0 mg/kg/injection, schedule: Q04DX003 (ip), vehicle: Klucel (hydroxypropylcellulose) (HPC) 101 % of control | dose: 40.0 mg/kg/injection, schedule: Q04DX003 (ip), vehicle: Klucel (hydroxypropylcellulose) (HPC) 89 % of control | dose: 80.0 mg/kg/injection, schedule: Q04DX003 (ip), vehicle: Klucel (hydroxypropylcellulose) (HPC) 102 % of control
